IC50 data for 28 compounds are collected here from patent publication US8642629B2, “Naphthylacetic acids” (Hoffmann-La Roche Inc., priority 2008, dated 2014).

This assay addresses T1, human CRTH2 (Homo sapiens, UniProt Q9Y5Y4).
T1 construct: expressed in transfected cells; host or cells: CHO-K1
T1 sequence (Q9Y5Y4 1-395): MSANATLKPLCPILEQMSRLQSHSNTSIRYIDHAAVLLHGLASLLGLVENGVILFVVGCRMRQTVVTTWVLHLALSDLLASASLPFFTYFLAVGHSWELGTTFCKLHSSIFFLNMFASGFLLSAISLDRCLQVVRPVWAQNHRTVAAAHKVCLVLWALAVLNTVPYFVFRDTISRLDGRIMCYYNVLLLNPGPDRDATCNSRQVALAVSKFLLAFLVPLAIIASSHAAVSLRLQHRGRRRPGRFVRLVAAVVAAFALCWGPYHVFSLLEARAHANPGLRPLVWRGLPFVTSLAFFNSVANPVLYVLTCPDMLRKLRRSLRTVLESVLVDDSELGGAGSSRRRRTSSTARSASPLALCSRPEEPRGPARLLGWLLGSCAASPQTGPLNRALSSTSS
Briefly: Human CRTH2 Receptor Binding Assay (whole cell, [3H]ramatroban competition). Particulars: CHO-K1 cells expressing human CRTH2 and G-alpha16; 20 nM [3H]ramatroban; 1 hour, room temperature. The text has this: A whole cell receptor binding assay using [^3H]ramatroban as the competing radioactive ligand was employed to evaluate the compound binding activity to human CRTH2. The radioactive ligand [^3H]ramatroban was synthesized according to Sugimoto et. al. (Eur. J. Pharmacol. 524, 30-37, 2005) to a specific activity of 42 Ci/mmol.
A cell line stably expressing human CRTH2 was established by transfecting CHO-K1 cells with two mammalian expression vectors that harbored human CRTH2 and G-alpha16 cDNAs, respectively, using FuGene® 6 transfection reagent (from Roche). Stable clones expressing CRTH2 were selected by staining each clone with BM16 (BD Pharmingen™ from BD Biosciences, a division of Becton, Dickinson and Company), which is a rat monoclonal antibody to human CRTH2. The cells were maintained as monolayer cultures in Ham's F-12 medium containing 10% fetal bovine serum, 100 units/mL penicillin, 100 μg/mL streptomycin, 2 mM glutamine, 0.5 mg/mL G418 (geneticin) for CRTH2, and 0.2 mg/mL hygromycin-B (for G-alpha 16). For whole cell receptor binding assay, the monolayer cells were rinsed once with PBS (phosphate buffered saline), dissociated using ethylenediaminetetraacetate (Versene™ EDTA from Lonza Inc.), and suspended in PBS containing 10 mM MgCl2 and 0.06% BSA (bovine serum albumin) at 1.5×10^6 cells/mL.
The binding reactions (0.2 mL) were performed in 96-well plates at room temperature in PBS containing 1.5×10^5 cells, 10 mM MgCl2, 0.06% BSA, 20 nM [^3H]ramatroban, and test compound at various concentrations. After 1 hour of binding reactions, the cells were harvested on GF™/B filter microplates (microtiter plates with embedded glass fiber from PerkinElmer, Inc.) and washed 5 times with PBS using a Filtermate™ Harvester (a cell harvester that harvests and washes cells from microplates from PerkinElmer, Inc.). The radioactivities bound to the cells were determined using a microplate scintillation counter (TopCount® NXT, from PerkinElmer, Inc.) after adding 50 μL of Microscint™ 20 scintillation fluid (from PerkinElmer, Inc.) to each well of the filter plates. The radioactivity from non-specific binding was determined by replacing compound with 10 μM of 15(R)-15-methyl PGD2 (from Cayman Chemical Company) in the reaction mixtures. The radioactivity bound to the cells in the absence of compound (total binding) was determined by replacing compound with 0.25% of DMSO (dimethyl sulfoxide) in the reaction mixture. Specific binding data were obtained by subtracting the radioactivity of non-specific binding from each binding data.
The IC50 value is defined as the concentration of the tested compound that is required for 50% inhibition of total specific binding. In order to calculate the IC50 value, the percent inhibition data were determined for 7 concentrations for each compound. The percent inhibition for a compound at each concentration was calculated according to the following formula, [1−(specific binding in the presence of compound)/(total specific binding)]×100. The IC50 value was then obtained by fitting the percent inhibition data to a sigmoidal dose-response (4 parameter logistic) model in the XLfit® software Excel add-in program [from ID Business Solutions Ltd., model 205, where F(x)=(A+(B−A)/(1+((C/x)^D)))].

`CCS(=O)(=O)c1ccc(Oc2cc(CC(=O)O)cc3ccc(OC(F)(F)F)cc23)nc1` [Example 1-18, [4-(5-Ethanesulfonyl-pyridin-2-yloxy)-6-trifluoromethoxy-naphthalen-2-yl]-acetic acid] gave a concentration for half-maximal inhibition (IC50) of 2.6 nM.
Take `CCS(=O)(=O)c1ccc(Oc2cc(CC(=O)O)cc3ccc(C#N)cc23)nc1` [Example 14-1, [6-Cyano-4-(5-ethanesulfonyl-pyridin-2-yloxy)-naphthalen-2-yl]-acetic acid]: the 50% inhibitory concentration (IC50) worked out at 3.3 nM.
As for `CCS(=O)(=O)c1cc(Cl)c(Oc2c(C)c(CC(=O)O)cc3ccc(F)cc23)cc1F` [Example 2-25, [4-(2-chloro-4-ethanesulfonyl-5-fluoro-phenoxy)-6-fluoro-3-methyl-naphthalen-2-yl]-acetic acid], the figure is 2.4 nM.
Consider `Cc1cc(S(C)(=O)=O)cnc1Oc1cc(CC(=O)O)cc2ccc(F)cc12` [Example 1-10, [6-fluoro-4-(5-methanesulfonyl-3-methyl-pyridin-2-yloxy)-naphthalen-2-yl]-acetic acid], for which the 50% inhibitory concentration (IC50) stood at 3.3 nM.
Under `CCS(=O)(=O)c1ccc(Oc2cc(CC(=O)O)cc3ccc(C(F)(F)F)cc23)cc1` [Example 1-17, [4-(4-Ethanesulfonyl-phenoxy)-6-trifluoromethyl-naphthalen-2-yl]-acetic acid] stands 10.5 nM; under `CS(=O)(=O)c1cnc(Oc2cc(CC(=O)O)cc3ccc(F)cc23)c(Br)c1` [Example 1-14, [4-(3-bromo-5-methanesulfonyl-pyridin-2-yloxy)-6-fluoro-naphthalen-2-yl]-acetic acid], 19.1 nM; under `CCS(=O)(=O)c1ccc(Oc2cc(CC(=O)O)cc3cccc(F)c23)cc1` [Example 1-22, [4-(4-Ethanesulfonyl-phenoxy)-5-fluoro-naphthalen-2-yl]-acetic acid], 5.4 nM.
Under `CCS(=O)(=O)c1ccc(Oc2c(C)c(CC(=O)O)cc3ccc(F)cc23)c(Cl)c1` [Example 2-21, [4-(2-chloro-4-ethanesulfonyl-phenoxy)-6-fluoro-3-methyl-naphthalen-2-yl]-acetic acid] stands 2.4 nM.
As for `Cc1cc(S(C)(=O)=O)ccc1Oc1c(C)c(CC(=O)O)cc2ccc(Cl)cc12` [Example 2-9, [6-chloro-4-(4-methanesulfonyl-2-methyl-phenoxy)-3-methyl-naphthalen-2-yl]-acetic acid], the figure is 2.7 nM; as for `CCS(=O)(=O)c1ccc(Oc2c(C)c(CC(=O)O)cc3ccc(F)cc23)c(C#N)c1` [Example 2-18, [4-(2-cyano-4-ethanesulfonyl-phenoxy)-6-fluoro-3-methyl-naphthalen-2-yl]-acetic acid], 1.7 nM.
`CCS(=O)(=O)c1ccc(Oc2cc(CC(=O)O)cc3cc(OC)c(OC)cc23)cc1` [Example 1-23, [4-(4-Ethanesulfonyl-phenoxy)-6,7-dimethoxy-naphthalen-2-yl]-acetic acid] yielded an IC50 of 97.3 nM.
Take `CCS(=O)(=O)c1ccc(Oc2c(C)c(CC(=O)O)cc3ccc(F)cc23)nc1` [Example 2-33, [4-(5-ethanesulfonyl-pyridin-2-yloxy)-6-fluoro-3-methyl-naphthalen-2-yl]-acetic acid]: the concentration for half-maximal inhibition (IC50) stood at 2.7 nM.
Under `Cc1cc(S(C)(=O)=O)ccc1Oc1c(C)c(CC(=O)O)cc2ccc(F)cc12` [Example 2-3, [6-fluoro-4-(4-methanesulfonyl-2-methyl-phenoxy)-3-methyl-naphthalen-2-yl]-acetic acid] stands 7.5 nM; under `Cc1c(CC(=O)O)cc2ccc(F)cc2c1Oc1ccc(S(=O)(=O)N2CCCC2)cc1` [Example 2-38, {6-fluoro-3-methyl-4-[4-(pyrrolidine-1-sulfonyl)-phenoxy]-naphthalen-2-yl}-acetic acid], 2.2 nM.
As for `Cc1c(CC(=O)O)cc2ccc(Cl)cc2c1Oc1ccc(C#N)cc1` [Example 2-45, [6-chloro-4-(4-cyano-phenoxy)-3-methyl-naphthalen-2-yl]-acetic acid], the figure is 134 nM; as for `Cc1c(CC(=O)O)cc2ccc(F)cc2c1Oc1ccc(S(=O)(=O)N(C)C)cc1` [Example 2-37, [4-(4-dimethylsulfamoyl-phenoxy)-6-fluoro-3-methyl-naphthalen-2-yl]-acetic acid], 1.9 nM; as for `CC(C)S(=O)(=O)c1ccc(Oc2cc(CC(=O)O)cc3ccc(F)cc23)cc1` [Example 1-4, {6-fluoro-4-[4-(propane-2-sulfonyl)-phenoxy]-naphthalen-2-yl}-acetic acid], 6.7 nM.
`CCS(=O)(=O)c1ccc(Oc2c(C3CC3)c(CC(=O)O)cc3ccc(F)cc23)nc1` [Example 18-1, [3-Cyclopropyl-4-(5-ethanesulfonyl-pyridin-2-yloxy)-6-fluoro-naphthalen-2-yl]-acetic acid] registered a 50% inhibitory concentration (IC50) of 6.7 nM.
Under `CS(=O)(=O)c1ccc(S(=O)(=O)c2cc(CC(=O)O)cc3ccc(F)cc23)cc1` [Example 11-1, [6-fluoro-4-(4-methanesulfonyl-benzenesulfonyl)-naphthalen-2-yl]-acetic acid] stands 7.7 nM; under `COc1ccc(S(=O)(=O)c2ccc(Oc3c(C)c(CC(=O)O)cc4ccc(F)cc34)cc2)cc1` [Example 2-30, {6-fluoro-4-[4-(4-methoxy-benzenesulfonyl)-phenoxy]-3-methyl-naphthalen-2-yl}-acetic acid], 2.7 nM; under `CS(=O)(=O)c1ccc(Oc2cc(CC(=O)O)c(F)c3ccc(F)cc23)nc1` [Example 4-1, [1,6-difluoro-4-(5-methanesulfonyl-pyridin-2-yloxy)-naphthalen-2-yl]-acetic acid], 7.9 nM.
In turn, `CCS(=O)(=O)c1cnc(Oc2cc(CC(=O)O)cc3ccc(F)cc23)c(Br)c1` [Example 1-13, [4-(3-bromo-5-ethanesulfonyl-pyridin-2-yloxy)-6-fluoro-naphthalen-2-yl]-acetic acid] registered an IC50 of 2.3 nM.
Under `Cc1c(CC(=O)O)cc2ccc(F)cc2c1Oc1ccc(S(=O)(=O)C2CCCC2)cc1` [Example 2-26, [4-(4-cyclopentanesulfonyl-phenoxy)-6-fluoro-3-methyl-naphthalen-2-yl]-acetic acid] stands 2.3 nM; under `Cc1c(CC(=O)O)cc2ccc(F)cc2c1Oc1cc(F)c(S(C)(=O)=O)cc1F` [Example 2-15, [4-(2,5-difluoro-4-methanesulfonyl-phenoxy)-6-fluoro-3-methyl-naphthalen-2-yl]-acetic acid], 2.6 nM.
As for `CCS(=O)(=O)c1ccc(Oc2c(F)c(CC(=O)O)cc3ccc(F)cc23)nc1` [Example 5-1, [4-(5-ethanesulfonyl-pyridin-2-yloxy)-3,6-difluoro-naphthalen-2-yl]-acetic acid], the figure is 3.1 nM; as for `CCS(=O)(=O)c1cnc(Oc2c(C)c(CC(=O)O)cc3ccc(F)cc23)c(C2CC2)c1` [Example 21-1, [4-(3-Cyclopropyl-5-ethanesulfonyl-pyridin-2-yloxy)-6-fluoro-3-methyl-naphthalen-2-yl]-acetic acid], 2.8 nM; as for `CCS(=O)(=O)c1cnc(Oc2c(C)c(CC(=O)O)cc3ccc(F)cc23)c(C)c1` [Example 2-35, [4-(5-ethanesulfonyl-3-methyl-pyridin-2-yloxy)-6-fluoro-3-methyl-naphthalen-2-yl]-acetic acid], 2.9 nM.
Under `CCS(=O)(=O)c1ccc(Oc2c(C)c(CC(=O)O)cc3ccc(F)cc23)cc1C` [Example 2-14, [4-(4-ethanesulfonyl-3-methyl-phenoxy)-6-fluoro-3-methyl-naphthalen-2-yl]-acetic acid] stands 1.6 nM.
